Source: patent US9464044B2, “Compound having ability to inhibit 11Beta-HSD1 enzyme or pharmaceutically acceptable salt thereof, method for producing same, and pharmaceutical composition containing same as active ingredient” (AHN-GOOK PHARMACEUTICAL CO., LTD., priority 2012, dated 2016)

Columns and labels:
[1] = target: 11β-HSD1 (Homo sapiens (Human), UniProt P28845); assay: 11β-HSD1 inhibiting activity, HTRF assay with human microsomal fractions; format: biochemical; conditions: 160 nM cortisone, 200 μM NADPH, 2 h at 37° C.
Sequence of 11β-HSD1 (P28845 whole entry): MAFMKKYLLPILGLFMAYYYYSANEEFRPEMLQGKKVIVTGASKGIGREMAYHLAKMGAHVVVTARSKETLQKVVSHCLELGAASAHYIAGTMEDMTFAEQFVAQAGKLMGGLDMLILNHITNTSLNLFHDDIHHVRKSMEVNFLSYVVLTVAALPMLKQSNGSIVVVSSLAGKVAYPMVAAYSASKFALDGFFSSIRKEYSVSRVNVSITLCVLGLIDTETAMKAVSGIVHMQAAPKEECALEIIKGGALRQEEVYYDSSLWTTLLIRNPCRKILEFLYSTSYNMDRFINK
Procedure: The inhibiting activity of 11β-HSD1 derived from microsomal fractions was measured using the HTRF assay (62CO2PEB, Cisbio). […] Europium (Eu^3+) cryptate and XL665-conjugated cortisol were then added to each well and incubated for an additional 2 h at room temperature. The Cortisol concentration was calculated u sing a calibration curve. The IC50 values were calculated from dose response curves using GraphPad Prism software.

[2] = system: KKAy mice; assay: In vivo study of the lowering effect on plasma glucose and plasma insulin in KKAy mouse model; conditions: for levels of plasma glucose and plasma insulin: either 100 mg/kg or 50 mg/kg; for Plasma glucose lowering effect / Plasma insulin lowering effect: oral, 100 mg/kg, 3 weeks, after fasting

SMILES | IC50 [1] [nM] | levels of plasma glucose and plasma insulin [2] | Plasma glucose lowering effect [2] [%] | Plasma insulin lowering effect [2] [%]
CC(C)(NS(=O)(=O)c1ccccc1F)C(=O)NC1C2CC3CC1CC(C(N)=O)(C3)C2 (centres unmarked) [Example 71, E-4-[2-(2-fluoro-benzenesulfonylamino)-2-methylpropanamido]-adamantan-1-carboxylic acid amide] | 0.6 | significantly reduced | 27 | 40
NC(=O)C12CC3CC(C1)C(NC(=O)c1cccc([N-]S(=O)(=O)c4cccc(Cl)c4F)c1)C(C3)C2.[Na+] (centres unmarked) [Example 113, E-sodium[3-((5-carbamoyladamantan-2-yl)carbamoyl)phenyl]-2-fluoro-3-chloro-benzenesulfonylamide] | 2.7 | significantly reduced | 28 | 60
